Bounds are passed on as bounds.

Type in all cases: biochemical
Assay [1] addresses T1, μ-opioid receptor (Homo sapiens (Human), UniProt P35372). The assay is described as follows: μ-opioid receptor [35S]GTPγS functional assay, HEK-293 or CHO cells. On the procedure: (§1) μ-Opioid Receptor Functional Assay Procedures: [^35S]GTPγS functional assays were conducted using freshly thawed μ-receptor membranes prepared in-house from a cell line expressing recombinant μ opioid receptor in a HEK-293, CHO or U-2 OS cell background, or purchased from a commercial source (Perkin Elmer, Shelton, Conn.; or DiscovRx, Fremont, Calif.). Assay reactions were prepared by sequentially adding the following reagents to binding buffer (100 mM NaCl, 10 mM MgCl2, 20 mM HEPES, pH 7.4) on ice (final concentrations indicated): membrane protein (0.026 mg/mL), saponin ([…]), GDP ([…]) and [^35S]GTPγS (0.20 nM; Perkin Elmer, Shelton, Conn.). The prepared membrane solution (190 μl/well) was transferred to 96-shallow well polypropylene plates containing 10 μl of 20× concentrated stock solutions of the agonist [D-Ala^2, N-methyl-Phe^4 Gly-ol^5]-enkephalin (DAMGO) prepared in dimethyl sulfoxide (DMSO). Plates were incubated for 30 min at about 25° C. with shaking. Reactions were terminated by rapid filtration onto 96-well Unifilter GF/B filter plates (Perkin Elmer, Shelton, Conn.) using a 96-well tissue harvester (Perkin Elmer, Shelton, Conn.) followed by three filtration washes with 200 μl of ice-cold wash buffer (10 mM NaH2PO4, 10 mM Na2HPO4, pH 7.4). Filter plates were subsequently dried at 50° C. for 2-3 hours. BetaScint scintillation cocktail (Perkin Elmer, Shelton, Conn.) was added (50 μl/well) and plates were counted using a Packard Top-Count for 1 min/well. Data were analyzed using the sigmoidal dose-response curve fitting functions in GraphPad PRISM v. 3.0, or an in-house function for non-linear, sigmoidal dose-response curve-fitting.
(§2) μ-Opioid Receptor Functional Data: μ GTP EC50 is the concentration of a compound providing 50% of the maximal response for the compound at a μ-opioid receptor.
(§3) μ GTP Emax (%) is the maximal effect elicited by a compound relative to the effect elicited by DAMGO, a standard μ agonist. Generally, the μ GTP Emax (%) value measures the efficacy of a compound to treat or prevent pain or other Conditions.
In TABLE 2, activity response of certain Compounds of the Invention to the μ-, δ- and κ-opioid receptors was determined as described above for functional assays using HEK-293 or CHO cells.

For assay [2], the target named is T1, μ-opioid receptor. The assay is described as follows: μ-opioid receptor [35S]GTPγS functional assay, U-2 OS cells. To be noted: for Emax: relative to DAMGO, U-2 OS cells. How it is done:
as §1, §2, §3
(§4) The following TABLE 3 provides results on the activity response of certain Compounds of the Invention at the μ- and κ-opioid receptors determined as described above using U-2 OS cells.

The target in assay [3] is κ-opioid receptor (Homo sapiens (Human), UniProt P41145). The assay is described as follows: κ-opioid receptor [35S]GTPγS functional assay, U-2 OS cells. To be noted: for Emax: relative to U69,593, U-2 OS cells. On the procedure:
κ-Opioid Receptor Functional Assay Procedures: Functional [^35S]GTPγS binding assays were conducted as follows. κ opioid receptor membrane solution was prepared by sequentially adding final concentrations of 0.026 μg/μl κ membrane protein (in-house), 10 μg/mL saponin, 3 μM GDP and 0.20 nM [^35S]GTPγS to binding buffer (100 mM NaCl, 10 mM MgCl2, 20 mM HEPES, pH 7.4) on ice. The prepared membrane solution (190 μl/well) was transferred to 96-shallow well polypropylene plates containing 10 μl of 20× concentrated stock solutions of agonist prepared in DMSO. Plates were incubated for 30 min at a temperature of about 25° C. with shaking. Reactions were terminated by rapid filtration onto 96-well Unifilter GF/B filter plates (Perkin Elmer, Shelton, Conn.) using a 96-well tissue harvester (Packard) and followed by three filtration washes with 200 μl ice-cold binding buffer (10 mM NaH2PO4, 10 mM Na2HPO4, pH 7.4). Filter plates were subsequently dried at 50° C. for 2-3 hours. Fifty μl/well scintillation cocktail (Perkin Elmer, Shelton, Conn.) was added and plates were counted in a Packard Top-Count for 1 min/well.
κ-Opioid Receptor Functional Data: κ GTP EC50 is the concentration of a compound providing 50% of the maximal response for the compound at a κ receptor.
κ GTP Emax (%) is the maximal effect elicited by a compound relative to the effect elicited by U69,593.
as §4
In general terms: GTPγS resists hydrolysis and so accumulates on activated G proteins.

Setting [4] is: relative to DAMGO, HEK-293 or CHO cells.

What is called EC50 is the concentration giving half of the maximal effect. The term Emax denotes the greatest response seen or fitted, relative to the assay's reference. In the case of `O=C(N[C@H]1c2ccccc2C[C@H]1O)c1cc2c([nH]c1=O)C[C@]13CCN(CC4CC4)[C@H](Cc4ccc(O)cc41)[C@@H]3C2` [Compound 62, (6R,6aR,12aS)-15-(cyclopropylmethyl)-2-hydroxy-N-((1S,2R)-2-hydroxy-2,3-dihydro-1H-inden-1-yl)-10-oxo-6,6a,7,10,11,12-hexahydro-5H-6,12a-(epiminoethano)naphtho[2,1-g]quinoline-9-carboxamide], the EC50 in assay [1] is greater than 20 µM. The Emax in assay [1] (setting [4]) was -1%.
`COc1ccc2c(c1)[C@]13CCN[C@H](C2)[C@]1(O)Cc1cc(C(N)=O)c(=O)[nH]c1C3` [Compound 32, (6R,6aS,12aR)-6a-hydroxy-2-methoxy-10-oxo-6,6a,7,10,11,12-hexahydro-5H-6,12a-(epiminoethano)naphtho[2,1-g]quinoline-9-carboxamide]: in assay [2], the EC50 was greater than 20000 nM and the Emax was determined as 17.5%. In assay [3], the EC50 was greater than 20000 nM and the Emax worked out at 6.7 ± 6.56%.
In the case of `CN(C)C(=O)c1cc2c([nH]c1=O)C[C@]13CCN(C)[C@H](Cc4ccc(O)cc41)[C@]3(O)C2` [Compound 46, (6R,6aS,12aR)-2,6a-dihydroxy-N,N,15-trimethyl-10-oxo-6,6a,7,10,11,12-hexahydro-5H-6,12a-(epiminoethano)naphtho[2,1-g]quinoline-9-carboxamide], in assay [2], the EC50 is 157 ± 16.4 nM and the Emax came out at 84.7 ± 2.19%. In addition, in assay [3], the EC50 worked out at 624 ± 83.6 nM and the Emax was determined as 73 ± 6.99%.
On to `CN1CC[C@]23Cc4[nH]c(=O)c(C(=O)NCC5CCCCC5)cc4C[C@@]2(O)[C@H]1Cc1ccc(O)cc13` [Compound 44, (6R,6aS,12aR)—N-(cyclohexylmethyl)-2,6a-dihydroxy-15-methyl-10-oxo-6,6a,7,10,11,12-hexahydro-5H-6,12a-(epiminoethano)naphtho[2,1-g]quinoline-9-carboxamide], for which, in assay [2], a half-maximal effect (EC50) was put at 439 ± 27.4 nM and the Emax stood at 88.3 ± 0.88%. Also, in assay [3], the EC50 worked out at 92.5 ± 24.2 nM and the Emax was 67 ± 1%.
On the same counts, the results for `CN1CC[C@]23Cc4[nH]c(=O)c(C(=O)O)cc4C[C@@]2(O)[C@H]1Cc1ccc(O)cc13` [Compound 41, (6R,6aS,12aR)-2,6a-dihydroxy-15-methyl-10-oxo-6,6a,7,10,11,12-hexahydro-5H-6,12a-(epiminoethano)naphtho[2,1-g]quinoline-9-carboxylic acid] are 111 ± 8.9 nM, 58.2 ± 2.32%, 568 ± 33.3 nM and 70 ± 4.58%.
On to `CN1CC[C@]23Cc4c(cc(C(N)=O)c(=O)n4C)C[C@@]2(O)[C@H]1Cc1ccc(O)cc13` [Compound 39, (6R,6aS,12aR)-2,6a-dihydroxy-11,15-dimethyl-10-oxo-6,6a,7,10,11,12-hexahydro-5H-6,12a-(epiminoethano)naphtho[2,1-g]quinoline-9-carboxamide], for which, in assay [2], the EC50 was 164 ± 59 nM and the Emax came out at 33.7 ± 8.01%. Also, in assay [3], it took 641.6 ± 3.49 nM to reach a half-maximal effect (EC50) and the Emax turned out to be 54 ± 3.61%.
On the same counts, the results for `CN1CC[C@]23Cc4[nH]c(=O)c(C(=O)N5CCOCC5)cc4C[C@@]2(O)[C@H]1Cc1ccc(O)cc13` [Compound 47, (6R,6aS,12aR)-2,6a-dihydroxy-15-methyl-9-(morpholine-4-carbonyl)-6a,7,11,12-tetrahydro-5H-6,12a-(epiminoethano)naphtho[2,1-g]quinolin-10(6H)-one] are 156 ± 12.7 nM, 82 ± 1.73%, 511 ± 139 nM and 50 ± 2.74%.
In the same order, the values of `C[C@H](NC(=O)c1cc2c([nH]c1=O)C[C@]13CCN(C)[C@H](Cc4ccc(O)cc41)[C@]3(O)C2)C(N)=O` [Compound 50, (6R,6aS,12R)—N—((S)-1-amino-1-oxopropan-2-yl)-26a-dihydroxy-15-methyl-10-oxo-6,6a,7,10,11,12-hexahydro-5H-6,12a-(epiminoethano)naphtho[2.1-g]quinoline-9-carboxamide] are 204 ± 11.3 nM, 95 ± 1.15%, 1070 ± 157 nM and 54 ± 2.74%.
In the same order, the values of `CN1CC[C@]23Cc4[nH]c(=O)c(C(=O)N[C@@H](Cc5ccccc5)C(N)=O)cc4C[C@@]2(O)[C@H]1Cc1ccc(O)cc13` [Compound 51, (6R,6aS,12R)—N—((S)-1-amino-1-oxo-3-phenylpropan-2-yl)-2,6a-dihydroxy-15-methyl-10-oxo-6,6a,7,10,11,12-hexahydro-5H-6,12a-(epiminoethano)naphtho[2.1-g]quinoline-9-carboxamide] are 126 ± 14.3 nM, 97.7 ± 1.45%, 488 ± 79.4 nM and 39.3 ± 3.84%.
With `O=C(c1cc2c([nH]c1=O)C[C@]13CCN(CC4CC4)[C@H](Cc4ccc(O)cc41)[C@@H]3C2)N1Cc2ccccc2C1` [Compound 64, (6R,6aR,12aS)-15-(cyclopropylmethyl)-2-hydroxy-9-(isoindoline-2-carbonyl)-6,6a,7,12-tetrahydro-5H-6,12a-(epiminoethano)naphtho[2,1-g]quinolin-10(11H)-one], the EC50 in assay [1] is greater than 20 µM. For the same molecule, the Emax in assay [1] (setting [4]) was determined as 3.5%.
Turning to `O=C(c1cc2c([nH]c1=O)C[C@]13CCN(CC4CC4)[C@H](Cc4ccc(O)cc41)[C@@H]3C2)N1[C@@H]2CC[C@H]1C[C@@H](O)C2` [Compound 65, (6R,6aR,12aS)-15-(cyclopropylmethyl)-2-hydroxy-9-((1R,R,5S)-3-hydroxy-8-azabicyclo[3.2.1]octane-8-carbonyl)-6,6a,7,12-tetrahydro-5H-6,12a-(epiminoethano)naphtho[2,1-g]quinolin-10(11H)-one], the EC50 in assay [1] (GTPγS, HEK-293 or CHO cells, bound given in μM, read-out: μ EC50) is greater than 20 µM. Also, the “μ Emax (%)” value in assay [1] (setting [4]) is reported as 4.00%.
For `CN(C(=O)c1cc2c([nH]c1=O)C[C@]13CCN(CC4CC4)[C@H](Cc4ccc(O)cc41)[C@@H]3C2)C1CCCCC1` [Compound 63, (6R,6aR,12aS)—N-cyclohexyl-15-(cyclopropylmethyl)-2-hydroxy-N-methyl-10-oxo-6,6a,7,10,11,12-hexahydro-5H-6,12a-(epiminoethano)naphtho[2,1-g]quinoline-9-carboxamide], the EC50 in assay [1] is greater than 20 µM. Also, in assay [1] (setting [4]), the Emax was -1%.
As for `O=C(N[C@@H]1c2ccccc2C[C@@H]1O)c1cc2c([nH]c1=O)C[C@]13CCN(CC4CC4)[C@H](Cc4ccc(O)cc41)[C@@H]3C2` [Compound 61, (6R,6aR,12aS)-15-(cyclopropylmethyl)-2-hydroxy-N-((1R,2S)-2-hydroxy-2,3-dihydro-1H-inden-1-yl)-10-oxo-6,6a,7,10,11,12-hexahydro-5H-6,12a-(epiminoethano)naphtho[2,1-g]quinoline-9-carboxamide], the EC50 in assay [1] was greater than 20 µM. Besides, the Emax in assay [1] (setting [4]) is -1%.
Turning to `O=C(c1cc2c([nH]c1=O)C[C@]13CCN(CC4CC4)[C@H](Cc4ccc(O)cc41)[C@@H]3C2)N1CCS(=O)(=O)CC1` [Compound 60, (6R,6aR,12aS)-15-(cyclopropylmethyl)-9-(1,1-dioxidothiomorpholine-4-carbonyl)-2-hydroxy-6,6a,7,12-tetrahydro-5H-6,12a-(epiminoethano)naphtho[2,1-g]quinolin-10(11H)-one], the EC50 in assay [1] was greater than 20 µM. The Emax in assay [1] (setting [4]) was -1 ± 1%.

The values are drawn from patent publication US8980906B2, “Pyridonemorphinan analogs and biological activity on opioid receptors” (Purdue Pharma L.P., priority 2012, dated 2015).
